According to patent US5032576A, “Method for controlling female moths using a peptide” (The United States of America as represented by the …, priority 1989, dated 1991):
Read-outs that look alike come from different tables or passages of the source. Where a SMILES comes first, the peptide text is derived from it.

Experiments:
[1] = test system: third instar H. zea larvae
Procedure: Peptide of the Formula I, wherein X is Asp and Y is Leu(NH2) was dissolved in sucrose phosphate buffer and serially diluted to obtain 0.1, 1.0, 10, 100, and 1000 pmoles/5 μL of buffer. The peptide was then injected into third instar H. zea larvae the day before their moult to fourth instar. Observations for melanization (intense black color formation) were recorded after 48 hr.

L. dispar (gypsy moth) = conditions: cis-2-decyl-3-(5-methylhexyl) oxirane per female ± SE, N = 5; 5 pmoles injected
Procedure: (§1) Bioassay procedure is described in Example 6. Each female was injected
(§2) of the synthetic peptide in 10 microliter of buffer. The major component
(§3) Dose response of the peptide of Formula I, wherein X is Asp and Y is Leu(NH2): the peptide was dissolved in sucrose phosphate buffer and injected into ligated 3-day-old females during scotophase. Pheromone was extracted 3 hr after injection and quantified by capillary gas chromatography.

[2] = test system: O. nubilalis (European corn borer); conditions: (E)-11-tetradecen-1-ol acetate per female ± SE, N = 5; 5 pmoles injected
Procedure: as §1, §2, §3

[3] = test system: H. virescens (tobacco budworm); conditions: (Z)-11-hexadecenal per female ± SE, N = 5; 5 pmoles injected
Procedure: as §1, §2, §3

[4] = test system: D. nitidalis (pickle worm); conditions: (E)-11-hexadecenal per female ± SE, N = 5; 5 pmoles injected
Procedure: as §1, §2, §3

[5] = test system: M. sexta (tobacco hornworm); conditions: (E,Z)-10,12-hexadecadienal per female ± SE, N = 5; 5 pmoles injected
Procedure: as §1, §2, §3

[6] = test system: S. frugiperda (fall armyworm); conditions: per female ± SE, N = 5; 5 pmoles injected
Procedure: as §1, §2, §3

[7] = test system: ligated females of six other species of moths
Procedure: as §1, §2

ligated H. zea females = assay: Pheromone production bioassay: injection into ligated H. zea females; format: in vivo, Heliothis zea; conditions: for ng/Female H. zea (Z)-11-Hexadecenal: injected into ligated females

`CC[C@H](C)[C@H](NC(=O)[C@H](CCC(N)=O)NC(=O)[C@H](CCC(=O)O)NC(=O)[C@@H]1CCCN1C(=O)[C@H](CC(=O)O)NC(=O)[C@H](CCC(N)=O)NC(=O)[C@H](CCCNC(=N)N)NC(=O)[C@H](Cc1ccc(O)cc1)NC(=O)[C@H](CCSC)NC(=O)[C@H](CCC(=O)O)NC(=O)[C@H](CCC(N)=O)NC(=O)[C@H](CC(=O)O)NC(=O)[C@H](C)NC(=O)[C@@H]1CCCN1C(=O)[C@@H](NC(=O)[C@H](C)NC(=O)[C@@H]1CCCN1C(=O)[C@H](CCSC)NC(=O)[C@H](CC(=O)O)NC(=O)[C@H](CC(=O)O)NC(=O)[C@H](CO)NC(=O)[C@@H](N)CC(C)C)[C@@H](C)O)C(=O)N[C@@H](CC(=O)O)C(=O)N[C@@H](CO)C(=O)N[C@@H](CCCNC(=N)N)C(=O)N[C@H](C(=O)N[C@@H](CCCCN)C(=O)N[C@@H](Cc1ccc(O)cc1)C(=O)N[C@@H](Cc1ccccc1)C(=O)N[C@@H](CO)C(=O)N1CCC[C@H]1C(=O)N[C@@H](CCCNC(=N)N)C(=O)N[C@@H](CC(C)C)C(N)=O)[C@@H](C)O` [Compound 1] (H-LSDDMPATPADQEMYRQDPEQIDSRTKYFSPRL-NH2) was tested, and the melanization ([1]; 10 pmole dose, recorded after 48 hr) was 100%, the melanization ([1]; 10 pmoles/larva, after the moult to the fourth instar) was “intense melanization” and the mortality ([1]; 10 pmoles/larva, associated with melanization) was “significant mortality”. The “Quantity of the Major Component in the Pheromone of Hex-PBAN injected Female” value (from here on “Quantity of the Major Component”) (L. dispar (gypsy moth)) was 2.5 ± 0.4 ng, the “Quantity of the Major Component” value [2] was 6.7 ± 1.1 ng and the “Quantity of the Major Component” value [3] was 189.2 ± 12.2 ng. The “Quantity of the Major Component” value [4] was 49.2 ± 16.3 ng, the “Quantity of the Major Component” value [5] was 65.4 ± 11.9 ng and the “Quantity of the Major Component” value [6] was 42.9 ± 12.2 ng. The “quantity of pheromone produced relative to that found in normal females” value ([7]; in two of the six species) was 6-7 times, the “production of their respective pheromones” value ([7]; injected into ligated females of six other species) was “significant amounts” and the “ng/Female H. zea (Z)-11-Hexadecenal” value (ligated H. zea females; Dose 1.0 pMole) was 4.6 ng/Female. For the same compound, the “ng/Female H. zea (Z)-11-Hexadecenal” value (ligated H. zea females; Dose 10.0 pMole) was 128.2 ng/Female, the “ng/Female H. zea (Z)-11-Hexadecenal” value (ligated H. zea females; Dose 100.0 pMole) was 179.9 ng/Female and the “pheromone production at doses greater than 4.0 pmoles” value (ligated H. zea females; doses greater than 4.0 pmoles) was “significant decrease”. For the same compound, the “production of the sex pheromone” value (ligated H. zea females; injected into ligated H. zea females) was “normal production”.
For `CC[C@H](C)[C@H](NC(=O)[C@H](CCC(N)=O)NC(=O)[C@H](CCC(=O)O)NC(=O)[C@@H]1CCCN1C(=O)[C@H](CC(=O)O)NC(=O)[C@H](CCC(N)=O)NC(=O)[C@H](CCCNC(=N)N)NC(=O)[C@H](Cc1ccc(O)cc1)NC(=O)[C@H](CCSC)NC(=O)[C@H](CCC(=O)O)NC(=O)[C@H](CCC(N)=O)NC(=O)[C@H](CC(=O)O)NC(=O)[C@H](C)NC(=O)[C@@H]1CCCN1C(=O)[C@@H](NC(=O)[C@H](C)NC(=O)[C@@H]1CCCN1C(=O)[C@H](CCSC)NC(=O)[C@H](CC(=O)O)NC(=O)[C@H](CC(=O)O)NC(=O)[C@H](CO)NC(=O)[C@@H](N)CC(C)C)[C@@H](C)O)C(=O)N[C@@H](CC(N)=O)C(=O)N[C@@H](CO)C(=O)N[C@@H](CCCNC(=N)N)C(=O)N[C@H](C(=O)N[C@@H](CCCCN)C(=O)N[C@@H](Cc1ccc(O)cc1)C(=O)N[C@@H](Cc1ccccc1)C(=O)N[C@@H](CO)C(=O)N1CCC[C@H]1C(=O)N[C@@H](CCCNC(=N)N)C(=O)N[C@@H](CC(C)C)C(N)=O)[C@@H](C)O` [Compound 3] (H-LSDDMPATPADQEMYRQDPEQINSRTKYFSPRL-NH2), the “ng/Female H. zea (Z)-11-Hexadecenal” value (ligated H. zea females; Dose 1.0 pMole) was 1.7 ng/Female, the “ng/Female H. zea (Z)-11-Hexadecenal” value (ligated H. zea females; Dose 10.0 pMole) was 97.1 ng/Female and the “ng/Female H. zea (Z)-11-Hexadecenal” value (ligated H. zea females; Dose 100.0 pMole) was 145.7 ng/Female.
In the case of `CC[C@H](C)[C@H](NC(=O)[C@H](CCC(N)=O)NC(=O)[C@H](CCC(=O)O)NC(=O)[C@@H]1CCCN1C(=O)[C@H](CC(=O)O)NC(=O)[C@H](CCC(N)=O)NC(=O)[C@H](CCCNC(=N)N)NC(=O)[C@H](Cc1ccc(O)cc1)NC(=O)[C@H](CCSC)NC(=O)[C@H](CCC(=O)O)NC(=O)[C@H](CCC(N)=O)NC(=O)[C@H](CC(=O)O)NC(=O)[C@H](C)NC(=O)[C@@H]1CCCN1C(=O)[C@@H](NC(=O)[C@H](C)NC(=O)[C@@H]1CCCN1C(=O)[C@H](CCSC)NC(=O)[C@H](CC(=O)O)NC(=O)[C@H](CC(=O)O)NC(=O)[C@H](CO)NC(=O)[C@@H](N)CC(C)C)[C@@H](C)O)C(=O)N[C@@H](CC(N)=O)C(=O)N[C@@H](CO)C(=O)N[C@@H](CCCNC(=N)N)C(=O)N[C@H](C(=O)N[C@@H](CCCCN)C(=O)N[C@@H](Cc1ccc(O)cc1)C(=O)N[C@@H](Cc1ccccc1)C(=O)N[C@@H](CO)C(=O)N1CCC[C@H]1C(=O)N[C@@H](CCCNC(=N)N)C(=O)N[C@@H](CC(C)C)C(=O)O)[C@@H](C)O` [Compound 4] (H-LSDDMPATPADQEMYRQDPEQINSRTKYFSPRL-OH), the “ng/Female H. zea (Z)-11-Hexadecenal” value (ligated H. zea females; Dose 10.0 pMole) is reported as 0.9 ng/Female, the “ng/Female H. zea (Z)-11-Hexadecenal” value (ligated H. zea females; Dose 100.0 pMole) is reported as 3.2 ng/Female and the “ng/Female H. zea (Z)-11-Hexadecenal” value (ligated H. zea females; Dose 1000.0 pMole) is reported as 112.1 ng/Female.
